The text below walks through data of patent US20110040170A1, “ENDOSCOPIC IMAGING PHOTODYNAMIC THERAPY SYSTEM AND METHODS OF USE” (YEDA RESEARCH AND DEVELOPMENT CO., LTD., priority 2008, published 2011).

“And” between values parts separate entries of the source, which are not always exact repeats. Equal values may be shown once. “Also recorded” adds a separate entry of the source.

The subject of one data set is uterine horn. The conditions noted are these: cited from earlier work.
The test system of the next data set is extrauterine pregnancy. Conditions: selected patients (mass less than 4 cm, no fetal heart beat, low β-hCG); cited from earlier work.
The subject of data set [1] is feto-placental unit. In words: In vivo placental PDT of a single feto-placental unit in the pregnant rat. The procedure: Materials and Methods (i) Animals. Pregnant 10-week old female Wistar rats (litter sizes of 10±2) (Harlan Laboratories, Rehovot, Israel) were delivered to the lab on embryonic day 7-12 (E7-E12) and allowed acclimatization of at least 48 h. All animal protocols were approved by the Weizmann Institutional Animal Care and Use Committee (IACUC).
(ii) Photosensitizer. Palladium 3^1-oxo-15 -methoxycarbonylmethylrhodobacterio-chlorin-13^1,17^3-di(2-N2-dimethylaminoethyl) amide (PMRDA), a water-soluble positively charged Pd-bacteriochlorophyll derivative disclosed in WO 2005/120573, was either synthesized in the inventor's laboratory by known methods or kindly provided by Steba Laboratories Ltd. (Israel), and used as a photosensitizer. The PMRDA was obtained as powder and kept under Argon (Ar) at −20° C. in the dark. Thereafter it was dissolved in methanol (MeOH) and, following spectrophotometric determination of concentration, was divided into aliquots, dried under Ar and kept at −20° C. in the dark until use.
(iii) Light source. A 1W 755 nm laser (CeramOptec, Bonn, Germany) was used. Light was delivered via a diffuser tipped optic fiber (Medlight S.A., Ecublens, Switzerland).
(iv) In vivo PDT protocol. A pregnant rat (E14) was anesthetized by isoflurane inhalation using the IMPAC6 system (VetEquip Inc., Pleasanton, Calif., USA) and placed on its back; the lower abdomen was shaved, washed with 70% ethanol and draped with sterile gauze. A midline incision (approximately 2 cm in length) in the lower abdomen was performed by cutting the skin and abdominal-muscle layers separately. Using round forceps, the uterus was gently drawn out from the abdominal cavity and placed on the gauze. The exposed uterus was continuously irrigated with sterile 0.9% NaCl solution during the procedure (for layout, see FIGS. 5A, 5B). One embryo was randomly selected for treatment and positioned with the placenta facing up. […] Anesthesia was discontinued and the rat was placed in a cage and closely monitored for at least 48 h. […]

Data set [2] has as its system feto-placental unit. Put plainly: Histological analysis of feto-placental units and adjacent uterus after in utero PDT. Type of data set: in vivo, Wistar rats. The conditions noted are these: E16. On the procedure:
(iv) In vivo PDT protocol. A pregnant rat (E14) was anesthetized by isoflurane inhalation using the IMPAC6 system (VetEquip Inc., Pleasanton, Calif., USA) and placed on its back; the lower abdomen was shaved, washed with 70% ethanol and draped with sterile gauze. A midline incision (approximately 2 cm in length) in the lower abdomen was performed by cutting the skin and abdominal-muscle layers separately. Using round forceps, the uterus was gently drawn out from the abdominal cavity and placed on the gauze. The exposed uterus was continuously irrigated with sterile 0.9% NaCl solution during the procedure (for layout, see FIGS. 5A, 5B). One embryo was randomly selected for treatment and positioned with the placenta facing up. The laser beam was then directed to the exposed placental pole and the beam positioned for subsequent therapeutic illumination (6 mm light spot diameter) using the built-in visible (630 nm, 3 mW) aiming beam. No shielding of neighboring embryos was required. The photosensitizer PMRDA (50 μg/30 μl sterile saline) was delivered by trans-uterine injection (30G, 0.3 ml, insulin syringe) into the placenta. Following a drug/light time interval (DLTI) of 120 sec, illumination (100 mW/cm^2) was delivered (300 sec) to the placenta in a trans-uterine manner from above, perpendicular to the uterus (FIG. 5A). Upon completion of the PDT protocol, the uterus was eased back into the abdominal cavity. The abdominal facia was sutured using sterile 4-0 braided silk thread and the skin was clipped using 9 mm surgical clips. Anesthesia was discontinued and the rat was placed in a cage and closely monitored for at least 48 h. Animals received analgesia (Oxycod®, 6 ml/l) in their drinking water for at least 48 h. Controls: Dark control (DC): placental administration of photosensitizer without illumination. Light control (LC): placental sham injection of sterile vehicle (saline), followed by illumination with the respective light dose. Untreated control (UN): all untreated fetoplacental units in a treated rat.
(viii) Histology. […]

The conditions of data set [3]: rat.
Text: (vi) Post PDT fertility assessment. Treated rats were allowed to reach parturition and pup weaning (P21). Fertile males were then introduced into the cages and rats were allowed to mate until pregnancy could be verified by daily vaginal smears and palpation. Pregnancy in both uterine horns was verified by magnetic resonance imaging (MRI) and/or by animal sacrifice and macroscopic examination.
The subject of another data set is uterus. Put plainly: Histological analysis of post-PDT uteri for long-term damage. In kind it is in vivo, Wistar rats. On the procedure: (viii) Histology. Following animal sacrifice, the abdomen was surgically opened, the uterus was tied-off at the cervix, removed and placed in Carnoy's fixative (6:3:1 ethanol, chloroform and acetic acid, by vol.), or Tris-buffered Zn fixative (2.8 mM calcium acetate, 22.8 mM zinc acetate, and 36.7 mM zinc chloride in 0.1M Tris buffer, pH 7.4) for 48-72 h. Fixed tissue samples were placed in 70% ethanol, paraffin embedded and slides were prepared. Slides were stained with hematoxylin and eosin (H&E) Immunohistochemical staining of the specific cell markers was done using the following antibodies: sheep anti-von Willebrand Factor (vWF)] (Serotec, Oxford, UK), mouse anti-pancytokeratin (clone AE1/AE3, Zymed, San-Francisco, USA) and mouse anti-human smooth muscle actin (SMA) (a SMC marker) (clone 1A4, Serotec, Oxford, UK).
Following verification of the functional integrity of post-PDT rat uteri, histological analysis was conducted in order to identify possible long-term damage resulting from the treatment. For this purpose, uteri in post-PDT and control manipulated rats were examined approximately 10 days after parturition (17-18 days after treatment). The respective uteri were stained by standard H&E (FIGS. 8B and 8F) as well as by anti-SMA antibody (a SMC marker, indicative of uterine wall integrity) (FIGS. 8C and 8G), anti-pan-cytokeratin antibody (an epithelial cell marker, indicative of endometrial integrity and absence of adhesions) (FIGS. 8D and 8H) and for vWF factor (an endothelial cell marker, illustrating blood vessel integrity) (FIGS. 8E and 8I). Uteri featured mild to moderate organizing hemorrhages in the endometrium and mesometrium, typical of post-gravid uteri (uteri after parturition). The only type of lesion found was the presence of a low number of hemosiderin-laden macrophages (siderophages) in the endometrium (where such a presence is normal) and in the mesometrium. This finding (siderophages) was highest in the DC uterus and milder in the post PDT uterus.

Where [4] appears, read: subsequent fertility after 5-ALA PDT.

In the case of `NCC(=O)CCC(=O)O` [5-ALA, 5-aminolevulinic acid], in the data set with uterine horn (5-ALA administered E10, examined E17), the “treated animals that did not conceive following PDT” value is given as “one third”. Further, in the data set on uterine horn (setting [4]), the “fewer implanted embryos in the treated horn” value is on record as approximately 28% and the “treated animals that developed pregnancies in the treated horn subsequently” value is given as 66.2%. Moreover, the “pregnancy outcome in the treated uterine horn” value in the data set with uterine horn (systemic 5-ALA, whole horn illuminated) was “loss of all embryos in the treated uterine horn; also recorded: termination of all pregnancies in the treated horn”.
On to `CN(Cc1cnc2nc(N)nc(N)c2n1)c1ccc(C(=O)N[C@@H](CCC(=O)O)C(=O)O)cc1` [methotrexate, Methotrexate], for which the “success rate of medical therapy of EUP” value in the data set with extrauterine pregnancy is 70-95%.
“Palladium 3^1-oxo-15 -methoxycarbonylmethylrhodobacterio-chlorin-13^1,17^3-di(2-N2-dimethylaminoethyl) amide [PMRDA]”: in the data set with feto-placental unit [1] (50 μg/30 μl intra-placental injection at E14, DLTI 120 sec, 755 nm 100 mW/cm^2 for 300 sec, assessed E16, 11/14 embryos), the “pregnancy termination (embryo death rate) following PMRDA-PDT” value was ~80% and 78.6%. The “embryo mortality rate, dark control (DC)” value in the data set on feto-placental unit [1] (placental administration of photosensitizer without illumination, E14, assessed E16, 3/8 embryos) is on record as 37.5%. Moreover, the “morbidity to the treated pregnant rat” value in the data set on feto-placental unit [1] (rat, in vivo) is recorded as “did not result in noticeable morbidity”. Further, the “placental necrosis, share of placental mass involved” value in the data set on feto-placental unit [2] (post-PMRDA-PDT placenta) is reported as “approximately 70%”. Also, in the data set with feto-placental unit [2] (post-PMRDA-PDT), the “histological state of the embryo” value is “fully necrotic embryo” and the “state of the uterus adjacent to the treated placenta” value is “appeared viable”. For the same compound, in data set [3], the “fertility following local in vivo placental PDT” value is “fertility of the rats is preserved”. Besides, in data set [3] (in vivo), the “ability to conceive after PDT, parturition and re-mating” value was “all six rats pregnant”; the “litter sizes of second pregnancy” value is recorded as 6-11; the “parturition of the remaining litter after treatment” value is “All six rats achieved normal parturition”; the “pups delivered at parturition after treatment” value is recorded as 6 to 11 pups. Moreover, the “siderophages in endometrium and mesometrium, post PDT uterus” value in the data set on uterus (PMRDA with illumination) is “milder”. Further, the “siderophages in endometrium and mesometrium, DC uterus” value with uterus (PMRDA without illumination) is “highest”. The “necrosis / pathological findings in post-PDT uteri” value in the data set on uterus (uteri after parturition, H&E, SMA, pan-cytokeratin, vWF staining) is listed as “No necrotic areas were found; also recorded: no pathological findings”.
